This is an account of results in patent US9115134B2, “6-triazolopyridazine sulfanyl benzothiazole derivatives as MET inhibitors” (SANOFI, priority 2007, dated 2015).

The target of assay [1] is T1, MET (Homo sapiens, UniProt P08581). Put plainly: Test A: HTRF MET assay in 96-well format. The assay is classed as biochemical. Further details: The His-Tev-MET (956-1390) recombinant DNA in pFastBac (Invitrogen) is transfected into insect cells; His tag (N, cleaved yes); TEV cleavage site (N); made in house; host or cells: SF21 insect cells (baculovirus, pFastBac). As to conditions: MET 5 nM, 10 μM ATP. As to the method: I) Expression and Purification of MET, Cytoplasmic Domain
The His-Tev-MET (956-1390) recombinant DNA in pFastBac (Invitrogen) is transfected into insect cells, and after several viral amplification steps, the final baculovirus stock is tested for the expression of the protein of interest.
After infection for 72 h at 27° C. with the recombinant virus, the SF21 cell cultures are harvested by centrifugation and the cell pellets are stored at −80° C.
The cell pellets are resuspended in lysis buffer (buffer A [50 mM HEPES, pH 7.5, 250 mM NaCl, 10% glycerol, 1 mM TECP]; +cocktail of protease inhibitors, Roche Diagnostics, without EDTA, ref 1873580), stirred at 4° C. until the mixture is homogeneous and then lyzed mechanically using a “Dounce” type apparatus.
After centrifugation, the lysis supernatant is incubated for 2 h at 4° C. with nickel chelate resin (His-Trap 6 Fast Flow™, GE HealthCare). After washing with 20 volumes of buffer A, the suspension is packed into a column, and the proteins are eluted with a gradient of buffer B ([…]+290 mM imidazole).
The fractions containing the protein of interest for the purpose of electrophoretic analysis (SDS PAGE) are combined, concentrated by ultrafiltration (10 kDa cut-off) and injected onto an exclusion chromatography column (Superdex™ 200, GE HealthCare) equilibrated in buffer A.
After enzymatic cleavage of the histidine tag, the protein is reinjected onto a new IMAC nickel chelate chromatography column (His-Trap 6 Fast Flow™, GE HealthCare) equilibrated in buffer A. The fractions eluted with a gradient of buffer B and containing the protein of interest after electrophoresis (SDS PAGE) are finally combined and conserved at −80° C.
For the production of autophosphorylated protein, the previous fractions are incubated for 1 h at ambient temperature after the addition of 2 mM ATP, 2 mM MgCl2, and 4 mM Na3VO4. After the reaction has been stopped with 5 mM of EDTA, the reaction mixture is injected onto a HiPrep desalifying column (GE HealthCare) preequilibrated in buffer A+4 mM Na3VO4, and the fractions containing the protein of interest (SDS PAGE analysis) are combined and stored at −80° C. The degree of phosphorylation is verified by mass spectrometry (LC-MS) and by peptide mapping.
• A) Test A: HTRF MET assay in 96-well format
MET at a final concentration of 5 nM is incubated in a final volume of 50 μl of enzymatic reaction in the presence of the test molecule (for a final concentration range of from 0.17 nM to 10 μM, 3% DMSO final concentration) in 10 mM MOPS buffer, pH 7.4, 1 mM DTT, 0.01% Tween 20. The reaction is initiated with the substrate solution to obtain final concentrations of 1 μg/ml poly-(GAT), 10 μM ATP and 5 mM MgCl2. After incubation for 10 min at ambient temperature, the reaction is stopped with a 30 μl mix so as to obtain a final solution of 50 mM Hepes pH 7.5, 500 mM potassium fluoride, 0.1% BSA and 133 mM EDTA in the presence of 80 ng of streptavidin 61SAXLB Cis-Bio Int. and 18 ng of anti-phosphotyrosine Mab PT66-Europium Cryptate per well. After incubation for 2 hours at ambient temperature, the reading is taken at 2 wavelengths, 620 nm and 665 nm, on a reader for the TRACE/HTRF technique and the % inhibition is calculated from the 665/620 ratios.
For orientation: Time-resolved FRET reads energy transfer from a long-lived donor to a nearby acceptor.
Target sequence in this assay (P08581 956-1390): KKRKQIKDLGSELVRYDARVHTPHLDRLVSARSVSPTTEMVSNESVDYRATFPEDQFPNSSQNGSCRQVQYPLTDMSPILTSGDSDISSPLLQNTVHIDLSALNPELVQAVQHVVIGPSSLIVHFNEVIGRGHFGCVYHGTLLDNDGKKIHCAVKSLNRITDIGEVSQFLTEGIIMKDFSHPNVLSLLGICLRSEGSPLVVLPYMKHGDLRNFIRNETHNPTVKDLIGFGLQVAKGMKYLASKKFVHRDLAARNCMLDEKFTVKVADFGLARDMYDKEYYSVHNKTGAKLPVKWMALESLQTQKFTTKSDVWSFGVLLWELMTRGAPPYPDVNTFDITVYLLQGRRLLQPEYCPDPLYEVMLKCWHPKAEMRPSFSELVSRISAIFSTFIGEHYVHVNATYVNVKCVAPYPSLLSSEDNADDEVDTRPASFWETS

The test system of assay [2] is HCT116 cells, MKN45 cells. In words: Test C: Measurement of cell proliferation by 14C-thymidine pulse. As to conditions: 14C-thymidine incorporation, 96 h of treatment; cell line not given. The assay is classed as cell-based. As to the method: (§1) Stop the reaction with 100 μl of stop solution. Read without delay at […], 0.1 second on Wallac Victor plate reader. • C) Test C: Measurement of cell proliferation by ^14c-thymidine pulse
The cells are seeded into Cytostar 96-well plates in 180 μl for 4 hours at 37° C. and 5% CO2: HCT116 cells at a rate of 2500 cells per well in DMEM medium+10% foetal calf serum+1% L-glutamine and MKN45 cells at a rate of 7500 cells per well in RPMI medium+10% foetal calf serum+1% L-glutamine. After these 4 hours of incubation, the products are added in 10 μl as a 20-fold concentrated solution according to the dilution method mentioned for the ELISA. The products are tested at 10 concentrations in duplicate from 10 000 nM to 0.3 nM with an increment of 3.
After treatment for 72 h, add 10 μl of ^14C-thymidine at 10 μCi/ml to obtain 0.1 μCi per well. The ^14C-thymidine incorporation is measured on a Micro-Beta machine (Perkin-Elmer) after 24 hours of pulse and 96 h of treatment.
All the steps of the assay are automated on BIOMEK 2000 or TECAN stations.
Background: Dividing cells build labelled thymidine or BrdU into new DNA.

Assay [3] has as its target T1, MET. In words: Test B: Inhibition of the autophosphorylation of MET; ELISA technique (pppY1230,1234,1235) in MKN45 cells. Further details: Seed MKN45 cells into 96-well plates (Cell coat BD polylysine) at 20 000 cells/well; endogenous in cells; host or cells: MKN45 cells. As to conditions: 1 h treatment, PhosphoMET ELISA. The assay is classed as cell-based. As to the method: Leave to adhere for 24 hours in an incubator.
The cells are treated the day after seeding with the products at 6 concentrations in duplicate for 1 h. At least 3 control wells are treated with the same final amount of DMSO.
Product dilution: Stock at 10 mM in pure DMSO—range from 10 mM to 30 μM with an increment of 3 in pure DMSO—intermediate 1/50 dilutions in culture medium and then removal of 10 μl added directly to the cells (200 μl): final range of 10 000 to 30 nM.
At the end of the incubation, carefully remove the supernatant and rinse with 200 μl of PBS. Next, place 100 μl of lysis buffer directly in the wells on ice and incubate at 4° C. for 30 minutes. Lysis buffer: 10 mM Tris HCl, pH7.4, 100 mM NaCl, 1 mM EDTA, 1 mM EGTA, 1% Triton X-100, 10% glycerol, 0.1% SDS, 0.5% deoxycholate, 20 mM NaF, 2 mM Na3VO4, 1 mM PMSF and cocktail of antiproteases.
The 100 μl of lysates are transferred into a V-bottomed polypropylene plate and the ELISA is performed immediately, or the plate is frozen at −80° C. • b) PhosphoMET ELISA BioSource Kit KH00281
Into each well of the kit plate, add 70 μl of kit dilution buffer+30 μL of cell lysate or 30 μl of lysis buffer for the blanks. Incubate for 2 h with gentle agitation at ambient temperature.
Rinse the wells 4 times with 400 μl of kit washing buffer. Incubate with 100 μl of anti-phospho MET antibody for 1 hour at ambient temperature.
Rinse the wells 4 times with 400 μl of kit washing buffer. Incubate with 100 μl of anti-rabbit HRP antibody for 30 minutes at ambient temperature (except for the wells of chromogen alone).
Rinse the wells 4 times with 400 μl of kit washing buffer. Introduce 100 μL of chromogen and incubate for 30 minutes in the dark at ambient temperature.
as §1
Target sequence in this assay (P08581 25-1390): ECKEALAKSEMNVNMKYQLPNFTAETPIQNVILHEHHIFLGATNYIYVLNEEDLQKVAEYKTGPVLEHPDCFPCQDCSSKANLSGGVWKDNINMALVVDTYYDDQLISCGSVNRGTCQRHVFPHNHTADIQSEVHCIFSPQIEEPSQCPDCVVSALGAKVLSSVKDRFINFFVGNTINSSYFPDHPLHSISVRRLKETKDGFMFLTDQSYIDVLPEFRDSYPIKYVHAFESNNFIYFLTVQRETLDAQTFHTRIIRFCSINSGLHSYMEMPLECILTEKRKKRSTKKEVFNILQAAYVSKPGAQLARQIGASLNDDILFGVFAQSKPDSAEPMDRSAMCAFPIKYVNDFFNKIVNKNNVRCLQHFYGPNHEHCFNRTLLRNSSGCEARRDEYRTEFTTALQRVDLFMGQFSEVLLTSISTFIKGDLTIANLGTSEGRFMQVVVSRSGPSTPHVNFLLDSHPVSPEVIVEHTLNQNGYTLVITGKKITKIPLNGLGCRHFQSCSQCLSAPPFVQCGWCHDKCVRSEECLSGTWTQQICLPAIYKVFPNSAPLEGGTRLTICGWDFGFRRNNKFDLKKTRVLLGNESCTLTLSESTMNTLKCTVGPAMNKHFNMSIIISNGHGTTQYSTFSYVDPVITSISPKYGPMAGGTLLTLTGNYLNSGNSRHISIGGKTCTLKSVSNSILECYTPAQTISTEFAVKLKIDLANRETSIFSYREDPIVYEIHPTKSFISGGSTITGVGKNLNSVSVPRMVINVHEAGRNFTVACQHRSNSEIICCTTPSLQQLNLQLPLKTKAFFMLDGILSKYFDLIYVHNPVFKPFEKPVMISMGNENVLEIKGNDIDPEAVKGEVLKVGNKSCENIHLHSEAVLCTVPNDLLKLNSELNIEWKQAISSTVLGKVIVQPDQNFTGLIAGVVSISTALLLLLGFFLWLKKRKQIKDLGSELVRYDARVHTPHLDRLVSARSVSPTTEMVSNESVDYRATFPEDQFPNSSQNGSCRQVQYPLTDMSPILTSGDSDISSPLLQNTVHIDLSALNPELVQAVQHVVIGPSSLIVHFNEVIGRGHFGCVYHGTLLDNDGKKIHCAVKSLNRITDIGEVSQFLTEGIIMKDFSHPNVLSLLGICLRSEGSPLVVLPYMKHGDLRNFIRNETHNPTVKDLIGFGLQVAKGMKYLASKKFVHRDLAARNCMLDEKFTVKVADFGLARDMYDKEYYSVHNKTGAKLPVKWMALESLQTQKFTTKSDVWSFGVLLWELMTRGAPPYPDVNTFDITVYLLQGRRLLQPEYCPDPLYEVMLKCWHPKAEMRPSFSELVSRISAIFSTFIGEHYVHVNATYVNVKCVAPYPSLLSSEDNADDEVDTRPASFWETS

pIC50: −log10 of the molar value. A value given as a limit tells only on which side of the number the result lay.

As to `COc1ccc2nnc(Sc3ccc4nc(NC(=O)NCCN5CCCC5)sc4c3)n2n1` [Example 49, 1-{6-[(6-Methoxy[1,2,4]triazolo[4,3-b]pyridazin-3-yl)sulphanyl]-1,3-benzothiazol-2-yl}-3-[2-(pyrrolidin-1-yl)ethyl]urea], the pIC50 (as a rule, the IC50 on a negative log10 scale, so that one unit is a factor of ten) was greater than 7.00 on MET [1], greater than 6.00 in assay [2] and greater than 7.00 against MET [3].
Take `Nc1nc2ccc(Sc3nnc4n3N=C(c3cccc(F)c3)CC4)cc2s1` [Example 54, 6-{[6-(3-Fluorophenyl)-7,8-dihydro[1,2,4]triazolo[4,3-b]pyridazin-3-yl]sulphanyl}-1,3-benzothiazol-2-amine]: the results for the pIC50 (at MET [1]; in assay [2]; at MET [3]) were greater than 7.00, greater than 6.00 and 6.30 to 7.00, respectively.
Taken in the same sequence, the figures for `CCOC1=Nn2c(nnc2Sc2ccc3nc(NC(=O)NCCN4CCOCC4)sc3c2)CC1` [Example 38, 1-{6-[(6-Ethoxy-7,8-dihydro[1,2,4]triazolo[4,3-b]pyridazin-3-yl)sulphanyl]-1,3-benzothiazol-2-yl}-3-[2-(morpholin-4-yl)ethyl]urea] were greater than 7.00, greater than 6.00 and greater than 7.00.
Taken in the same sequence, the figures for `COCCNc1ccc2nnc(Sc3ccc4nc(NC(=O)OC(C)(C)C)sc4c3)n2n1` [Example 24, 1,1-Dimethylethyl[6-({6-[(2-methoxyethyl)amino][1,2,4]triazolo[4,3-b]pyridazin-3-yl}sulphanyl)-1,3-benzothiazol-2-yl]carbamate] were greater than 7.00, greater than 6.00 and greater than 7.00.
Turning to `COCCNc1ccc2nnc(Sc3ccc4nc(NC(=O)C5CC5)sc4c3)n2n1` [Example 40, N-[6-({6-[(2-Methoxyethyl)amino][1,2,4]triazolo[4,3-b]pyridazin-3-yl}sulphanyl)-1,3-benzothiazol-2-yl]cyclopropanecarboxamide], the results for the pIC50 (on MET [1]; in assay [2]; on MET [3]) were greater than 7.00, greater than 6.00 and greater than 7.00, respectively.
As to `O=C(Nc1nc2ccc(Sc3nnc4n3N=C(c3ccc(F)cc3)CC4)cc2s1)C1CC1` [Example 61, N-(6-{[6-(4-Fluorophenyl)-7,8-dihydro[1,2,4]triazolo[4,3-b]pyridazin-3-yl]sulphanyl}-1,3-benzothiazol-2-yl)cyclopropanecarboxamide], the pIC50 at MET [1] was greater than 7.00; in assay [2], greater than 6.00; against MET [3], greater than 7.00.
In the case of `O=C(Nc1nc2ccc(Sc3nnc4ccc(-c5ccc(F)cc5)nn34)cc2s1)C1CC1` [Example 60, N-(6-{[6-(4-Fluorophenyl)[1,2,4]triazolo[4,3-b]pyridazin-3-yl]sulphanyl}-1,3-benzothiazol-2-yl)cyclopropanecarboxamide], the pIC50 at MET [1] is greater than 7.00; in assay [2] it was greater than 6.00; at MET [3], greater than 7.00.
Consider `O=C(NCCN1CCOCC1)Nc1nc2ccc(Sc3nnc4n3N=C(c3ccc(F)cc3)CC4)cc2s1` [Example 44, 1-(6-{[6-(4-Fluorophenyl)-7,8-dihydro-[1,2,4]triazolo[4,3-b]pyridazin-3-yl]sulphanyl}-1,3-benzothiazol-2-yl)-3-[2-(morpholin-4-yl)ethyl]urea], for which the pIC50 was greater than 7.00 at MET [1], greater than 6.00 in assay [2] and greater than 7.00 at MET [3].
As to `CC(=O)Nc1nc2ccc(Sc3nnc4ccc(N5CCN(C)CC5)nn34)cc2s1` [Example 25, N-(6-{[6-(4-Methylpiperazin-1-yl)[1,2,4]triazolo[4,3-b]pyridazin-3-yl]sulphanyl}-1,3-benzothiazol-2-yl)acetamide], the figures for the pIC50 (at MET [1]; in assay [2]; on MET [3]) were greater than 7.00, greater than 6.00 and 6.30 to 7.00, respectively.
In the same order, the values of `O=C(NCC[N+]1([O-])CCOCC1)Nc1nc2ccc(Sc3nnc4ccc(-c5ccc(F)cc5)nn34)cc2s1` [Example 42, 1-(6-{[6-(4-Fluorophenyl)[1,2,4]triazolo[4,3-b]pyridazin-3-yl]sulphanyl}-1,3-benzothiazol-2-yl)-3-[2-(4-oxidomorpholin-4-yl)ethyl]urea] are greater than 7.00, greater than 6.00 and greater than 7.00.
In the same order, the values of `CCN(CC)CCNC(=O)Nc1nc2ccc(Sc3nnc4ccc(-c5ccc(F)cc5)nn34)cc2s1` [Example 17, 1-[2-(Diethylamino)ethyl]-3-(6-{[6-(4-fluorophenyl)[1,2,4]triazolo[4,3-b]pyridazin-3-yl]sulphanyl}-1,3-benzothiazol-2-yl)urea] are greater than 7.00, greater than 6.00 and greater than 7.00.
As to `O=C(CCCN1CCOCC1)Nc1nc2ccc(Sc3nnc4ccc(-c5ccc(F)cc5)nn34)cc2s1` [Example 15, N-(6-{[6-(4-Fluorophenyl)[1,2,4]triazolo[4,3-b]pyridazin-3-yl]sulphanyl}-1,3-benzothiazol-2-yl)-4-morpholin-4-ylbutanamide], the pIC50 on MET [1] is greater than 7.00; in assay [2] it was greater than 6.00; at MET [3], greater than 7.00.
